Experimental data as given in article PMC6222902, “DPP-IV Inhibitory Potentials of Flavonol Glycosides Isolated from the Seeds of Lens culinaris: In Vitro and Molecular Docking Analyses” (Molecules : A Journal of Synthetic Chemistry and Natural …, 2018).

Experiments:
DPP-IV [1] = test system: DPP-IV; parameters: method as in PMID 22410395; conditions: cited from earlier work
human recombinant DPP-IV = target: T1, human recombinant DPP-IV (Homo sapiens, UniProt P27487); experiment: DPP-IV inhibitor screening assay kit (Cayman), fluorogenic substrate Gly-Pro-AMC; assay type: biochemical; conditions: mean ± SD of three independent experiments
T1 construct: purchased Cayman Chemical
Protocol: To the best of our knowledge, no prior studies examined the in vitro DPP-IV-inhibitory effects of 1–3, although the protein-ligand complex for 3 was examined via molecular docking analysis, using Discovery Studio 3.0 and Meta-Pocket (http://projects.biotec.tu-dresden.de/metapocket/).
DPP-IV activity was analyzed using a DPP-IV inhibitor screening assay kit (Cayman Chemical, Ann Arbor, MI, USA), which provided a fluorescence-based method for screening DPP-IV inhibitors. The assay used the fluorogenic substrate, Gly-Pro-Aminomethylcoumarine (AMC), to measure DPP-IV activity. Cleavage of the peptide bond by DPP released the free AMC group, resulting in fluorescence that could be analyzed using an excitation wavelength of 350–360 nm and an emission wavelength of 450–465 nm.
The tested compounds were initially dissolved in DMSO to produce 50 mM stock solution, and subsequently diluted to the required concentrations using DMSO, and then they were added to a 96-well plate in final volume of 10 μL and a final concentration of 50 μM. The assay procedure is described briefly according to the manufacturer’s protocols as follows: Diluted assay buffer (30 μL) and diluted enzyme solution (10 μL) were added to the 96-well plate containing 10 μL of solvent (blank) or solvent-dissolved test compounds. The reaction was initiated by adding 50 μL of a diluted substrate solution, and the plate was incubated for 30 min at 37 °C. After incubation, fluorescence with an excitation wavelength of 350 nm and an emission wavelength of 450 nm was monitored using a plate reader (TECAN, Männedorf, Switzerland). The percent inhibition was expressed as ([DPP-IV level of vehicle–treated control–DPP-IV level of test samples]/DPP-IV level of vehicle-treated control) × 100.

DPP-IV [2] = conditions: DPP-IV Glo Protease Assay kit (Promega); cited from earlier work

T1 sequence (P27487 whole entry): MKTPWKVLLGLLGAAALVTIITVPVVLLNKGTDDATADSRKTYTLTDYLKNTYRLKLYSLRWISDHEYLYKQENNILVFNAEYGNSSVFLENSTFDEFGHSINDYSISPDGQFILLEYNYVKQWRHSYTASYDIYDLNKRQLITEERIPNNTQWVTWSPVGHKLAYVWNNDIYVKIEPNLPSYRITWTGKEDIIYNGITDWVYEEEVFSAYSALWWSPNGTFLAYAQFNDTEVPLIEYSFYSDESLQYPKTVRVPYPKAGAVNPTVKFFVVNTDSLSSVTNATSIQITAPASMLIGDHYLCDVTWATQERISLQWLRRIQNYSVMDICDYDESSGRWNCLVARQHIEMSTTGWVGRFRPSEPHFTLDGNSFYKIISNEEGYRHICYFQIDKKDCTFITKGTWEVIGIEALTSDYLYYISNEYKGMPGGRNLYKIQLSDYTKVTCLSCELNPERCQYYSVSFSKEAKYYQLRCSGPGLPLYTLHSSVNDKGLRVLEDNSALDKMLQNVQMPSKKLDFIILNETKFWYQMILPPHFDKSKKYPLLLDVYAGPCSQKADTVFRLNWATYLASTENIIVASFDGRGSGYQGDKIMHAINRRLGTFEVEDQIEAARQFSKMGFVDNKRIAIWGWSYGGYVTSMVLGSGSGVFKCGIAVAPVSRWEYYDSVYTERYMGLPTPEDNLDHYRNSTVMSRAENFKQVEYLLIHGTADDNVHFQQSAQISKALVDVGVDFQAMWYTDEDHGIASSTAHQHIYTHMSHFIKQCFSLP

## O=c1c(O[C@@H]2O[C@H](CO)[C@@H](O)[C@H](O)[C@H]2O)c(-c2ccc(O)c(O)c2)oc2cc(O)cc(O)c12 [isoquercitrin]
DPP-IV [1]
  in vivo bioactivities as a DPP-IV inhibitor: strong in vivo bioactivities

## CC1OC(OCC2OC(Oc3c(-c4ccc(O)cc4)oc4cc(OC5OC(C)C(O)C(O)C5O)cc(O)c4c3=O)C(OC3OC(CO)C(O)C(O)C3O)C(O)C2O)C(O)C(O)C1O (stereo not drawn) [Compound 2, kaempferol-3-O-β-gulcopyranosyl-(1→2)-[α-rhamnopyranosyl(1→6)]-β-galactopyranosyl-7-O-α-rhamnopyranoside]
Human recombinant DPP-IV
  IC50: 36.5 ± 0.78 µM

## CC1OC(OCC2OC(Oc3c(-c4ccc(O)cc4)oc4cc(OC5OC(C)C(O)C(O)C5O)cc(O)c4c3=O)C(O)C(O)C2O)C(O)C(O)C1O (stereo not drawn) [Compound 3, kaempferol-3-O-α-rhamnosyl(1→6)-O-β-galactopyranoside-7-O-α-rhamnopyranoside]
Human recombinant DPP-IV
  IC50: 37 ± 1.4 µM

## CC1OC(Oc2cc(O)c3c(=O)c(OC4OC(CO)C(O)C(O)C4OC4OC(CO)C(O)C(O)C4O)c(-c4ccc(O)cc4)oc3c2)C(O)C(O)C1O (stereo not drawn) [Compound 1, kaempferol-3-O-β-gulcopyranosyl-(1→2)-β-galactopyranosyl-7-O-α-rhamnopyranoside]
Human recombinant DPP-IV
  IC50: 27.9 ± 1.29 µM

## C[C@@H]1O[C@@H](O[C@H]2[C@H](Oc3cc(O)c4c(c3)O[C@H](c3ccc(O)cc3)CC4=O)O[C@H](CO)[C@@H](O)[C@@H]2O)[C@H](O)[C@H](O)[C@H]1O [naringin]
DPP-IV [1]
  in vivo bioactivities as a DPP-IV inhibitor: strong in vivo bioactivities

## O=c1c(O)c(-c2ccc(O)cc2)oc2cc(O)cc(O)c12 [Compound 4, kaempferol]
DPP-IV [2]
  IC50: 0.49 ± 0.02 µM
Human recombinant DPP-IV
  IC50: 51.7 ± 4.83 µM
